In the supplement of paper PMC10657565:
± gives the uncertainty stated by the source.

Tests used:
Test in all cases: relative cell viability vs DMSO control (% of DMSO control); higher = less growth inhibition (higher viability)
Details in all cases: treatment time: 72 h
SUM159 = test system: SUM159
Method: (§1)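 Breast cancer cell lines (BT-474, HCC1806, SUM-159, SKBR-3) were seeded in triplicate in 96-well plates and treated 24 h after seeding with kinase inhibitors at 8 doses (3 nM to 30 uM). After 72 h, viability was read by CellTiter-Glo luminescence. Values were averaged over replicates and normalised to DMSO-only (0.1%) controls on each plate to give relative viability (% of DMSO).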

SKBR3 = test system: SKBR3
Method: as §1

HCC1806 = test system: HCC1806
Method: as §1

BT-474 = test system: BT-474
Method: as §1

SMILES	relative cell viability (SUM159; 0.003 µM)	relative cell viability (SUM159; 0.01 µM)	relative cell viability (SUM159; 0.03 µM)	relative cell viability (SUM159; 0.1 µM)	relative cell viability (SUM159; 0.3 µM)	relative cell viability (SUM159; 1 µM)	relative cell viability (SUM159; 3 µM)	relative cell viability (SUM159; 30 µM)	relative cell viability (SKBR3; 0.003 µM)	relative cell viability (SKBR3; 0.01 µM)	relative cell viability (SKBR3; 0.03 µM)	relative cell viability (SKBR3; 0.1 µM)	relative cell viability (SKBR3; 0.3 µM)	relative cell viability (SKBR3; 1 µM)	relative cell viability (SKBR3; 3 µM)	relative cell viability (SKBR3; 30 µM)	relative cell viability (HCC1806; 0.003 µM)	relative cell viability (HCC1806; 0.01 µM)	relative cell viability (HCC1806; 0.03 µM)	relative cell viability (HCC1806; 0.1 µM)	relative cell viability (HCC1806; 0.3 µM)	relative cell viability (HCC1806; 1 µM)	relative cell viability (HCC1806; 3 µM)	relative cell viability (HCC1806; 30 µM)	relative cell viability (BT-474; 0.003 µM)	relative cell viability (BT-474; 0.01 µM)	relative cell viability (BT-474; 0.03 µM)	relative cell viability (BT-474; 0.1 µM)	relative cell viability (BT-474; 0.3 µM)	relative cell viability (BT-474; 1 µM)	relative cell viability (BT-474; 3 µM)	relative cell viability (BT-474; 30 µM)
COCCN1CCN(Cc2ccc(-c3n[nH]c4c3C(=O)c3c(NC(=O)NN5CCOCC5)cccc3-4)cc2)CC1	97.1 ± 6.1	60.4 ± 30	14.3 ± 16	7.11 ± 1	8.54 ± 0.38	9.97 ± 0.5	7.7 ± 0.38	0.538 ± 0.063	84.2 ± 3.5	71 ± 7.2	50 ± 7	18.1 ± 8.7	8.06 ± 0.7	7.43 ± 0.26	5.73 ± 0.075	0.827 ± 0.17	96.5 ± 1.7	83.3 ± 2.7	42.8 ± 16	11.7 ± 1.4	9.5 ± 1.1	9.2 ± 0.52	9.82 ± 0.46	2.82 ± 1.3	97.7 ± 4.1	86 ± 3.1	66.7 ± 7	64.5 ± 6.1	69.8 ± 8.4	70.8 ± 15	75.2 ± 7.9	11.2 ± 0.36
COCc1c(-c2ccc(NC(=O)Nc3cc(C(F)(F)F)ccc3F)c(F)c2)c2c(N)ncnn2c1CN1CCOCC1 [ACTB-1003]	101.4 ± 0.75	99.02 ± 0.34	96.9 ± 4.4	98.6 ± 1.8	91.7 ± 2.9	73.4 ± 5.4	39.5 ± 3.3	0.887 ± 0.066	105 ± 0.92	104 ± 2.9	107 ± 3.9	106 ± 2.7	107 ± 3.3	98.8 ± 2	78.2 ± 4	3.14 ± 0.2	–	–	–	–	–	–	–	–	–	–	–	–	–	–	–	–
c1cc(OCCN2CCCCC2)cc(-c2n[nH]c3ccc(-c4nnc[nH]4)cc23)c1 [CC-401]	102 ± 3.9	102 ± 5	101 ± 2.8	99.9 ± 2.5	98.4 ± 4.2	103 ± 2.2	105 ± 3.4	52.5 ± 2.7	104 ± 2.5	104 ± 5.8	105 ± 2.5	100 ± 3.7	99.8 ± 2.2	94.5 ± 4.1	91 ± 2.1	68.2 ± 3.2	–	–	–	–	–	–	–	–	–	–	–	–	–	–	–	–
Cc1cc(Nc2ncc(Cl)c(Nc3ccccc3S(=O)(=O)C(C)C)n2)c(OC(C)C)cc1C1CCNCC1 [Ceritinib]	103 ± 1.4	104 ± 2.6	103 ± 2.6	97.1 ± 3.6	90.8 ± 8.2	53.9 ± 11	1.44 ± 0.14	0.279 ± 0.078	104 ± 3	105 ± 2	102 ± 4.2	99.8 ± 3.8	96.4 ± 2.8	89.1 ± 5.3	10.7 ± 4.1	0.491 ± 0.1	–	–	–	–	–	–	–	–	–	–	–	–	–	–	–	–
COc1cc2ncnc(Nc3ccc(O)cc3)c2cc1OC [JANEX-1]	101 ± 6.1	103 ± 1.8	104 ± 2.1	102 ± 3.1	97.9 ± 3.6	96.2 ± 4.1	92.5 ± 1.9	59.2 ± 2.8	106 ± 3.1	104.9 ± 0.48	107 ± 1.8	105 ± 3.3	104 ± 2.6	101 ± 5.9	100 ± 1.5	61.4 ± 2.9	–	–	–	–	–	–	–	–	–	–	–	–	–	–	–	–
COC(=O)[C@@]1(O)C[C@H]2O[C@]1(C)n1c3ccccc3c3c4c(c5c6ccccc6n2c5c31)C(=O)NC4 [K-252a]	68.7 ± 6.9	63.8 ± 1.2	72.2 ± 3	34.7 ± 9.7	12.9 ± 2.6	6.47 ± 1.4	4.82 ± 0.85	2.12 ± 0.57	92.4 ± 4.2	90.4 ± 2	87.8 ± 4.2	81.8 ± 3.8	69.2 ± 4.8	54.3 ± 1.9	40 ± 2.8	1.88 ± 0.54	91.4 ± 5.5	81.8 ± 5.3	75.8 ± 6.2	62.3 ± 13	26.1 ± 8.3	13 ± 1.5	5.96 ± 2.1	0.762 ± 0.15	113 ± 7.6	106 ± 6.3	99.6 ± 7.7	91.6 ± 6.8	81.3 ± 4.5	58.9 ± 7.6	21.3 ± 4.6	1.44 ± 0.18
Cc1c(F)cc(C(=O)NC2CC2)cc1-c1ccc(C(=O)NCC(C)(C)C)cn1 [Losmapimod]	98.8 ± 3	97.2 ± 1.3	98 ± 7	99 ± 5.2	92.7 ± 2.7	91.5 ± 5	87.5 ± 2.5	68.5 ± 3.9	105 ± 4.8	102 ± 7	101 ± 5.5	95.9 ± 5.4	95.9 ± 5.7	93 ± 4.7	93.4 ± 2.4	73.6 ± 2.7	–	–	–	–	–	–	–	–	–	–	–	–	–	–	–	–
CN1CCN(c2nc(C3=C(c4c[nH]c5ccccc45)C(=O)NC3=O)c3ccccc3n2)CC1 [Sotrastaurin]	–	–	–	–	–	–	–	–	–	–	–	–	–	–	–	–	101 ± 2.4	98.3 ± 3.2	100 ± 1.9	103 ± 2.2	103 ± 3.5	104 ± 3.6	103 ± 1.9	43.3 ± 5.5	111 ± 4.3	108 ± 9.6	104 ± 15	99.8 ± 21	91 ± 26	84.5 ± 32	76.8 ± 29	42.4 ± 18
Cn1c(=O)c(F)c(Nc2ccc(I)cc2F)c2c(=O)n(C[C@@H](O)CO)cnc21 [TAK-733]	–	–	–	–	–	–	–	–	–	–	–	–	–	–	–	–	77.8 ± 5.2	75.1 ± 5.4	73.8 ± 3.5	72.7 ± 4.1	71.6 ± 2.5	71.6 ± 3.9	70.3 ± 3.3	39.2 ± 3.9	104 ± 16	103 ± 7.3	104 ± 11	94.8 ± 12	99.5 ± 11	93 ± 14	92 ± 9.1	36.3 ± 9.5
CN[C@@H]1C[C@H]2O[C@@](C)([C@@H]1OC)n1c3ccccc3c3c4c(c5c6ccccc6n2c5c31)C(=O)N[C@H]4O [UCN-01]	–	–	–	–	–	–	–	–	–	–	–	–	–	–	–	–	97.8 ± 4.1	76.3 ± 6.7	36.7 ± 12	9.05 ± 0.96	8.6 ± 0.48	7.53 ± 0.63	2.19 ± 0.3	0.853 ± 0.066	97.4 ± 3.3	89.9 ± 2	85.5 ± 2.9	85.9 ± 11	56.9 ± 3.2	34.5 ± 3.3	15.9 ± 0.39	6.69 ± 0.4
CC(C)c1cc(CNc2nc(Nc3cc(C4CC4)[nH]n3)cc(N3CCN(C)CC3)n2)on1 [XL-228]	74.7 ± 5.2	61.4 ± 1.7	54.32 ± 0.48	36.5 ± 1.4	26.8 ± 1.6	11 ± 0.61	6.45 ± 0.28	10.8 ± 0.58	103 ± 1.4	101 ± 2.3	101 ± 7.3	100 ± 6.3	115 ± 6.3	117 ± 3.9	52.2 ± 6.2	6.72 ± 0.86	–	–	–	–	–	–	–	–	–	–	–	–	–	–	–	–
